Measured values reported in ChEMBL document CHEMBL5126592, “Design, synthesis and activity against drug-resistant bacteria evaluation of C-20, C-23 modified 5-O-mycaminosyltylonolide derivatives” (Eur J Med Chem, 2022).
Values after ≈ are worked out from the molar mass of the structure shown.

What was measured:
Format in all cases: functional
Conditions in all cases: time 16-20 hrs
Staphylococcus aureus = assay: Antibacterial activity against Staphylococcus aureus ATCC 25923 incubated for 16 to 20 hrs by broth microdilution method
Escherichia coli = assay: Antibacterial activity against Escherichia coli ATCC 25922 incubated for 16 to 20 hrs by broth microdilution method
Cronobacter sakazakii = assay: Antibacterial activity against Cronobacter sakazakii ATCC 29544 incubated for 16 to 20 hrs by broth microdilution method
Klebsiella pneumoniae = assay: Antibacterial activity against Klebsiella pneumoniae ATCC 13883 incubated for 16 to 20 hrs by broth microdilution method

SMILES	MIC (Staphylococcus aureus)	MIC (Escherichia coli)	MIC (Cronobacter sakazakii)	MIC (Klebsiella pneumoniae)
CC[C@H]1OC(=O)C[C@@H](O)[C@H](C)[C@@H](O[C@@H]2O[C@H](C)[C@@H](O)[C@H](N(C)C)[C@H]2O)[C@@H](CCN(Cc2ccc(OC)cc2)Cc2cn(-c3cnc4ccccc4c3)nn2)C[C@@H](C)C(=O)/C=C/C(C)=C/[C@@H]1CN(C)C	1 µg/mL (≈ 1.05 µM)	8 µg/mL (≈ 8.38 µM)	32 µg/mL (≈ 33.5 µM)	8 µg/mL (≈ 8.38 µM)
CC[C@H]1OC(=O)C[C@@H](O)[C@H](C)[C@@H](O[C@@H]2O[C@H](C)[C@@H](O)[C@H](N(C)C)[C@H]2O)[C@@H](CCN(Cc2ccc(OC)cc2)Cc2cn(-c3cnc4ccccc4c3)nn2)C[C@@H](C)C(=O)/C=C/C(C)=C/[C@@H]1CN1CCC(O)CC1	2 µg/mL (≈ 1.98 µM)	8 µg/mL (≈ 7.92 µM)	32 µg/mL (≈ 31.7 µM)	8 µg/mL (≈ 7.92 µM)
CC[C@H]1OC(=O)C[C@@H](O)[C@H](C)[C@@H](O[C@@H]2O[C@H](C)[C@@H](O)[C@H](N(C)C)[C@H]2O)[C@@H](CCN(Cc2ccc(OC)cc2)Cc2cn(-c3cnc4ccccc4c3)nn2)C[C@@H](C)C(=O)/C=C/C(C)=C/[C@@H]1CN1CCCCC1	0.5 µg/mL (≈ 0.503 µM)	4 µg/mL (≈ 4.02 µM)	16 µg/mL (≈ 16.1 µM)	8 µg/mL (≈ 8.05 µM)
CC[C@H]1OC(=O)C[C@@H](O)[C@H](C)[C@@H](O[C@@H]2O[C@H](C)[C@@H](O)[C@H](N(C)C)[C@H]2O)[C@@H](CCN(Cc2cn(-c3cnc4ccccc4c3)nn2)Cc2ccco2)C[C@@H](C)C(=O)/C=C/C(C)=C/[C@@H]1CN1CCC(O)CC1	4 µg/mL (≈ 4.12 µM)	8 µg/mL (≈ 8.25 µM)	16 µg/mL (≈ 16.5 µM)	16 µg/mL (≈ 16.5 µM)
CC[C@H]1OC(=O)C[C@@H](O)[C@H](C)[C@@H](O[C@@H]2O[C@H](C)[C@@H](O)[C@H](N(C)C)[C@H]2O)[C@@H](CCN(Cc2ccc(C(F)(F)F)cc2)Cc2cn(-c3cnc4ccccc4c3)nn2)C[C@@H](C)C(=O)/C=C/C(C)=C/[C@@H]1CO	0.25 µg/mL (≈ 0.259 µM)	8 µg/mL (≈ 8.29 µM)	16 µg/mL (≈ 16.6 µM)	32 µg/mL (≈ 33.2 µM)
CC[C@H]1OC(=O)C[C@@H](O)[C@H](C)[C@@H](O[C@@H]2O[C@H](C)[C@@H](O)[C@H](N(C)C)[C@H]2O)[C@@H](CCN(Cc2cn(-c3cnc4ccccc4c3)nn2)Cc2ccco2)C[C@@H](C)C(=O)/C=C/C(C)=C/[C@@H]1CN1CCCCCCC1	1 µg/mL (≈ 1.02 µM)	4 µg/mL (≈ 4.07 µM)	32 µg/mL (≈ 32.6 µM)	8 µg/mL (≈ 8.14 µM)
CC[C@H]1OC(=O)C[C@@H](O)[C@H](C)[C@@H](O[C@@H]2O[C@H](C)[C@@H](O)[C@H](N(C)C)[C@H]2O)[C@@H](CCN(Cc2ccc(C(F)(F)F)cc2)Cc2cn(-c3cnc4ccccc4c3)nn2)C[C@@H](C)C(=O)/C=C/C(C)=C/[C@@H]1CN1CCCCC1	1 µg/mL (≈ 0.969 µM)	8 µg/mL (≈ 7.75 µM)	16 µg/mL (≈ 15.5 µM)	16 µg/mL (≈ 15.5 µM)
CC[C@H]1OC(=O)C[C@@H](O)[C@H](C)[C@@H](O[C@@H]2O[C@H](C)[C@@H](O)[C@H](N(C)C)[C@H]2O)[C@@H](CCN(C)Cc2cn(-c3cnc4ccccc4c3)nn2)C[C@@H](C)C(=O)/C=C/C(C)=C/[C@@H]1CI	2 µg/mL (≈ 2.15 µM)	16 µg/mL (≈ 17.2 µM)	32 µg/mL (≈ 34.4 µM)	32 µg/mL (≈ 34.4 µM)
CC[C@H]1OC(=O)C[C@@H](O)[C@H](C)[C@@H](O[C@@H]2O[C@H](C)[C@@H](O)[C@H](N(C)C)[C@H]2O)[C@@H](CCN(Cc2ccncc2)Cc2cn(-c3cnc4ccccc4c3)nn2)C[C@@H](C)C(=O)/C=C/C(C)=C/[C@@H]1CO	0.125 µg/mL (≈ 0.139 µM)	32 µg/mL (≈ 35.6 µM)	32 µg/mL (≈ 35.6 µM)	32 µg/mL (≈ 35.6 µM)
CC[C@H]1OC(=O)C[C@@H](O)[C@H](C)[C@@H](O[C@@H]2O[C@H](C)[C@@H](O)[C@H](N(C)C)[C@H]2O)[C@@H](CCN(Cc2ccc(N(C)C)cc2)Cc2cn(-c3cnc4ccccc4c3)nn2)C[C@@H](C)C(=O)/C=C/C(C)=C/[C@@H]1CN1CCCCCCC1	0.5 µg/mL (≈ 0.483 µM)	8 µg/mL (≈ 7.73 µM)	32 µg/mL (≈ 30.9 µM)	16 µg/mL (≈ 15.5 µM)
CC[C@H]1OC(=O)C[C@@H](O)[C@H](C)[C@@H](O[C@@H]2O[C@H](C)[C@@H](O)[C@H](N(C)C)[C@H]2O)[C@@H](CCN(Cc2ccc(C(F)(F)F)cc2)Cc2cn(-c3cnc4ccccc4c3)nn2)C[C@@H](C)C(=O)/C=C/C(C)=C/[C@@H]1CN1CCCCCC1	1 µg/mL (≈ 0.956 µM)	4 µg/mL (≈ 3.82 µM)	8 µg/mL (≈ 7.65 µM)	4 µg/mL (≈ 3.82 µM)
CCCN(C)C[C@H]1/C=C(C)/C=C/C(=O)[C@H](C)C[C@H](CCN(C)Cc2cn(-c3cnc4ccccc4c3)nn2)[C@H](O[C@@H]2O[C@H](C)[C@@H](O)[C@H](N(C)C)[C@H]2O)[C@@H](C)[C@H](O)CC(=O)O[C@@H]1CC	0.5 µg/mL (≈ 0.571 µM)	8 µg/mL (≈ 9.13 µM)	16 µg/mL (≈ 18.3 µM)	8 µg/mL (≈ 9.13 µM)
CC[C@H]1OC(=O)C[C@@H](O)[C@H](C)[C@@H](O[C@@H]2O[C@H](C)[C@@H](O)[C@H](N(C)C)[C@H]2O)[C@@H](CCN(Cc2ccc(N(C)C)cc2)Cc2cn(-c3cnc4ccccc4c3)nn2)C[C@@H](C)C(=O)/C=C/C(C)=C/[C@@H]1CI	4 µg/mL (≈ 3.81 µM)	32 µg/mL (≈ 30.5 µM)	32 µg/mL (≈ 30.5 µM)	16 µg/mL (≈ 15.2 µM)
CC[C@H]1OC(=O)C[C@@H](O)[C@H](C)[C@@H](O[C@@H]2O[C@H](C)[C@@H](O)[C@H](N(C)C)[C@H]2O)[C@@H](CCN(Cc2cncnc2)Cc2cn(-c3cnc4ccccc4c3)nn2)C[C@@H](C)C(=O)/C=C/C(C)=C/[C@@H]1CO	0.5 µg/mL (≈ 0.556 µM)	32 µg/mL (≈ 35.6 µM)	32 µg/mL (≈ 35.6 µM)	32 µg/mL (≈ 35.6 µM)
CC[C@H]1OC(=O)C[C@@H](O)[C@H](C)[C@@H](O[C@@H]2O[C@H](C)[C@@H](O)[C@H](N(C)C)[C@H]2O)[C@@H](CCN(Cc2ccc(C(F)(F)F)cc2)Cc2cn(-c3cnc4ccccc4c3)nn2)C[C@@H](C)C(=O)/C=C/C(C)=C/[C@@H]1CI	4 µg/mL (≈ 3.72 µM)	32 µg/mL (≈ 29.8 µM)	32 µg/mL (≈ 29.8 µM)	32 µg/mL (≈ 29.8 µM)
CC[C@H]1OC(=O)C[C@@H](O)[C@H](C)[C@@H](O[C@@H]2O[C@H](C)[C@@H](O)[C@H](N(C)C)[C@H]2O)[C@@H](CCN(Cc2ccc(OC)cc2)Cc2cn(-c3cnc4ccccc4c3)nn2)C[C@@H](C)C(=O)/C=C/C(C)=C/[C@@H]1CN1CCCCCC1	0.5 µg/mL (≈ 0.496 µM)	8 µg/mL (≈ 7.93 µM)	32 µg/mL (≈ 31.7 µM)	4 µg/mL (≈ 3.97 µM)
CCCN(CCC)C[C@H]1/C=C(C)/C=C/C(=O)[C@H](C)C[C@H](CCN(Cc2ccc(Br)cc2)Cc2cn(-c3cnc4ccccc4c3)nn2)[C@H](O[C@@H]2O[C@H](C)[C@@H](O)[C@H](N(C)C)[C@H]2O)[C@@H](C)[C@H](O)CC(=O)O[C@@H]1CC	1 µg/mL (≈ 0.944 µM)	8 µg/mL (≈ 7.55 µM)	8 µg/mL (≈ 7.55 µM)	8 µg/mL (≈ 7.55 µM)
CC[C@H]1OC(=O)C[C@@H](O)[C@H](C)[C@@H](O[C@@H]2O[C@H](C)[C@@H](O)[C@H](N(C)C)[C@H]2O)[C@@H](CCN(Cc2ccc(Br)cc2)Cc2cn(-c3cnc4ccccc4c3)nn2)C[C@@H](C)C(=O)/C=C/C(C)=C/[C@@H]1CO	0.125 µg/mL (≈ 0.128 µM)	8 µg/mL (≈ 8.2 µM)	32 µg/mL (≈ 32.8 µM)	32 µg/mL (≈ 32.8 µM)
CC[C@H]1OC(=O)C[C@@H](O)[C@H](C)[C@@H](O[C@@H]2O[C@H](C)[C@@H](O)[C@H](N(C)C)[C@H]2O)[C@@H](CCN(Cc2cn(-c3cnc4ccccc4c3)nn2)Cc2ccco2)C[C@@H](C)C(=O)/C=C/C(C)=C/[C@@H]1CN1CCCCC1	0.25 µg/mL (≈ 0.262 µM)	8 µg/mL (≈ 8.38 µM)	32 µg/mL (≈ 33.5 µM)	32 µg/mL (≈ 33.5 µM)
CC[C@H]1OC(=O)C[C@@H](O)[C@H](C)[C@@H](O[C@@H]2O[C@H](C)[C@@H](O)[C@H](N(C)C)[C@H]2O)[C@@H](CCN(Cc2ccc(OC)cc2)Cc2cn(-c3cnc4ccccc4c3)nn2)C[C@@H](C)C(=O)/C=C/C(C)=C/[C@@H]1CN(CC)CC	0.5 µg/mL (≈ 0.509 µM)	4 µg/mL (≈ 4.07 µM)	16 µg/mL (≈ 16.3 µM)	8 µg/mL (≈ 8.14 µM)
CCCCN(CCCC)C[C@H]1/C=C(C)/C=C/C(=O)[C@H](C)C[C@H](CCN(C)Cc2cn(-c3cnc4ccccc4c3)nn2)[C@H](O[C@@H]2O[C@H](C)[C@@H](O)[C@H](N(C)C)[C@H]2O)[C@@H](C)[C@H](O)CC(=O)O[C@@H]1CC	0.5 µg/mL (≈ 0.536 µM)	8 µg/mL (≈ 8.58 µM)	16 µg/mL (≈ 17.2 µM)	16 µg/mL (≈ 17.2 µM)
CC[C@H]1OC(=O)C[C@@H](O)[C@H](C)[C@@H](O[C@@H]2O[C@H](C)[C@@H](O)[C@H](N(C)C)[C@H]2O)[C@@H](CCN(Cc2ccccc2)Cc2cn(-c3cnc4ccccc4c3)nn2)C[C@@H](C)C(=O)/C=C/C(C)=C/[C@@H]1CN1CCC(O)CC1	2 µg/mL (≈ 2.04 µM)	16 µg/mL (≈ 16.3 µM)	16 µg/mL (≈ 16.3 µM)	16 µg/mL (≈ 16.3 µM)
CC[C@H]1OC(=O)C[C@@H](O)[C@H](C)[C@@H](O[C@@H]2O[C@H](C)[C@@H](O)[C@H](N(C)C)[C@H]2O)[C@@H](CCN(Cc2ccc(C(F)(F)F)cc2)Cc2cn(-c3cnc4ccccc4c3)nn2)C[C@@H](C)C(=O)/C=C/C(C)=C/[C@@H]1CN1CCC(O)CC1	2 µg/mL (≈ 1.91 µM)	16 µg/mL (≈ 15.3 µM)	32 µg/mL (≈ 30.5 µM)	32 µg/mL (≈ 30.5 µM)
